From paper PMC8119466, “A screen of FDA-approved drugs identifies inhibitors of protein tyrosine phosphatase 4A3 (PTP4A3 or PRL-3)” (Scientific Reports, 2021)
Structures can show the parent of a compound that is named as a salt. Where two headings read alike, the source gives them in different places.

How the values were obtained:
Format in all cases: biochemical
[1] = molecular target: T1, recombinant PRL-1 (Homo sapiens, UniProt Q93096); experiment: In vitro phosphatase assay (DiFMUP hydrolysis), PRL-1; further: test concentration or dose not given here
T1 construct: 6xHis (N, cleaved yes); made in house; host or cells: E. coli One Shot BL21 Star
T1 sequence (Q93096 1-173): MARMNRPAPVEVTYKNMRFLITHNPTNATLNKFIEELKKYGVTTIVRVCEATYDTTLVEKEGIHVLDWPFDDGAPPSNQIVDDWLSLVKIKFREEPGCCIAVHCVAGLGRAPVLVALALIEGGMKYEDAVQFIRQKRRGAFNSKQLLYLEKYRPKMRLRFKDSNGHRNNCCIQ

[2] = molecular target: T2, recombinant PRL-2 (Homo sapiens, UniProt Q12974); experiment: In vitro phosphatase assay (DiFMUP hydrolysis), PRL-2;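 further: PRL-2 activity read as DiFMUP hydrolysis after 20 min at room temperature with drug, enzyme first pre-reduced at 4 °C for 20 min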
T2 construct: 6xHis (N, cleaved yes); made in house; host or cells: E. coli One Shot BL21 Star
T2 sequence (Q12974 1-167): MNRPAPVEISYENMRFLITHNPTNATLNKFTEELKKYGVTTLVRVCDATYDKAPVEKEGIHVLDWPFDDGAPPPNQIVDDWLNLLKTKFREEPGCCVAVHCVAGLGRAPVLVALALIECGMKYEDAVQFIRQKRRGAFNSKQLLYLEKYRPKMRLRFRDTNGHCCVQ

[3] = molecular target: T3, recombinant PRL-3 (Homo sapiens, UniProt O75365); experiment: In vitro phosphatase assay (DiFMUP hydrolysis), PRL-3; further: test concentration or dose not given here
T3 construct: 6xHis (N, cleaved yes); made in house; host or cells: E. coli One Shot BL21 Star

[4] = FDA-approved drug screen, compared to DMSO
[5] = FDA-approved drug screen, activity compared to DMSO

T3 sequence (O75365 whole entry): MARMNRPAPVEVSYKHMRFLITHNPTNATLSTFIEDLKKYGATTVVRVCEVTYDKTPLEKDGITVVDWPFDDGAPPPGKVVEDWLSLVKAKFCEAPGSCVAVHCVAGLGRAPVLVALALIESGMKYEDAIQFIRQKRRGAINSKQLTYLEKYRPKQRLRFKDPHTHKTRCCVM

Compound	% Phosphatase Activity (compared to DMSO) PRL-1 [1, 4]	% Phosphatase Activity (compared to DMSO) PRL-2 [2, 4]	% Phosphatase Activity (compared to DMSO) PRL-3 [3, 4]	further results
COC(=O)C1=C(C)NC(C)=C(C(=O)OCCN2CCN(C(c3ccccc3)c3ccccc3)CC2)C1c1cccc([N+](=O)[O-])c1.Cl.Cl (stereo not drawn) [Manidipine 2HCl]	97%	87%	82%	–
Oc1cc(Cl)ccc1Oc1ccc(Cl)cc1Cl [Triclosan]	–	–	–	% Phosphatase Activity (compared to DMSO) PRL-1 [1, 5]: 100%; % Phosphatase Activity (compared to DMSO) PRL-2 [2, 5]: 106%; % Phosphatase Activity (compared to DMSO) PRL-3 [3, 5]: 96%
CN(C)c1ccc2nc3ccc(=[N+](C)C)cc-3sc2c1 [Methylene Blue]	55%	72%	45%	–
Cl.c1ccc2c(c1)CCCC2C1=NCCN1 (stereo not drawn) [Tetrahydrozoline HCl]	–	–	–	% Phosphatase Activity (compared to DMSO) PRL-1 [1, 5]: 111%; % Phosphatase Activity (compared to DMSO) PRL-2 [2, 5]: 109%; % Phosphatase Activity (compared to DMSO) PRL-3 [3, 5]: 58%
C[C@@H](O)[C@H]1C(=O)N2C(C(=O)O)=C(S[C@@H]3CN[C@H](C(=O)N(C)C)C3)[C@H](C)[C@H]12 [Meropenem]	104%	109%	57%	–
O=C1CN(/N=C/c2ccc(-c3ccc([N+](=O)[O-])cc3)o2)C(O)=N1 [Dantrolene sodium]	76%	75%	60%	–
Nc1nc(=O)n([C@@H]2CS[C@H](CO)O2)cc1F [Emtricitabine]	–	–	–	% Phosphatase Activity (compared to DMSO) PRL-1 [1]: 104%; % Phosphatase Activity (compared to DMSO) PRL-2 [2]: 97%; % Phosphatase Activity (compared to DMSO) PRL-3 [3]: 75%
O=[N+]([O-])O[C@@H]1CO[C@H]2[C@@H]1OC[C@@H]2O [Isosorbide Mononitrate]	91%	85%	81%	–
CC(C)[C@H](O)C(=O)N[C@@H](C)C(=O)N[C@@H]1C(=O)N(C)CCc2ccccc21 [Semagacestat (LY450139)]	104%	120%	86%	–
C[C@H]1c2cccc(O)c2C(=O)C2=C(O)[C@]3(O)C(=O)C(C(N)=O)=C(O)[C@@H](N(C)C)[C@@H]3[C@@H](O)[C@@H]21 [Doxycycline HCl]	83%	83%	73%	–
COc1cccc2c1C(=O)c1c(O)c3c(c(O)c1C2=O)C[C@@](O)(C(C)=O)C[C@@H]3O[C@H]1C[C@H](N)[C@H](O)[C@H](C)O1 [Daunorubicin HCl]	83%	92%	82%	–
CCCN[C@H]1CCc2nc(N)sc2C1 [Pramipexole dihydrochloride monohydrate]	–	–	–	% Phosphatase Activity (compared to DMSO) PRL-1 [1]: 87%; % Phosphatase Activity (compared to DMSO) PRL-2 [2]: 98%; % Phosphatase Activity (compared to DMSO) PRL-3 [3]: 90%
CC(C)C(=O)OCC(=O)[C@@]12O[C@H](C3CCCCC3)O[C@@H]1C[C@H]1[C@@H]3CCC4=CC(=O)C=C[C@]4(C)[C@H]3[C@@H](O)C[C@@]12C [Ciclesonide]	100%	108%	88%	–
Cc1cccc(Cc2c[nH]cn2)c1C [Detomidine HCl]	88%	107%	81%	–
Cc1ccc(-c2nc3ccc(C)cn3c2CC(=O)N(C)C)cc1 [Zolpidem]	–	–	–	% Phosphatase Activity (compared to DMSO) PRL-1 [1, 5]: 98%; % Phosphatase Activity (compared to DMSO) PRL-2 [2, 5]: 97%; % Phosphatase Activity (compared to DMSO) PRL-3 [3, 5]: 85%
Cn1c(COP(=O)(NCCBr)NCCBr)cnc1[N+](=O)[O-] [TH-302]	–	–	–	% Phosphatase Activity (compared to DMSO) PRL-1 [1, 5]: 91%; % Phosphatase Activity (compared to DMSO) PRL-2 [2, 5]: 100%; % Phosphatase Activity (compared to DMSO) PRL-3 [3, 5]: 95%
Cc1nc(NC(=O)N2CCC[C@H]2C(N)=O)sc1-c1ccnc(C(C)(C)C(F)(F)F)c1 [BYL719]	89%	96%	90%	–
Cc1cccc(C)c1OCC(C)N (stereo not drawn) [Mexiletine HCl]	–	–	–	% Phosphatase Activity (compared to DMSO) PRL-1 [1]: 98%; % Phosphatase Activity (compared to DMSO) PRL-2 [2]: 106%; % Phosphatase Activity (compared to DMSO) PRL-3 [3]: 78%
